Measured values published in PMC11620503 (Antimicrobial Agents and Chemotherapy, 2024).
≈ marks a conversion by molar mass, not a printed value. Like-named read-outs stand apart in the source and are kept apart here.

Key:
[1] = system: MEM-nonsusceptible Enterobacterales; experiment: MIC, broth microdilution; assay type: cell-based; conditions: for CLSI MIC interpretation I (intermediate) / CLSI MIC interpretation R (resistant) / CLSI MIC interpretation S (susceptible): CLSI breakpoints, marked c: breakpoints for β-lactam alone; for MIC50 / MIC90: fixed concentration (μg/mL) in label
[2] = system: MBL-producing isolates (Enterobacterales); experiment: MIC, broth microdilution; assay type: cell-based; conditions: for MIC50 / MIC90: fixed concentration (μg/mL) in label; for MIC50: read-out: MIC50; for MIC90: read-out: MIC90
96 P. aeruginosa = experiment: MIC, broth microdilution; assay type: cell-based, Pseudomonas aeruginosa
[3] = system: MEM-, imipenem/relebactam-, and ceftolozane/tazobactam-nonsusceptible P. aeruginosa; experiment: MIC, broth microdilution; assay type: cell-based, Pseudomonas aeruginosa; conditions: for CLSI MIC interpretation I (intermediate) / CLSI MIC interpretation R (resistant) / CLSI MIC interpretation S (susceptible): CLSI breakpoints, marked c: breakpoints for β-lactam alone; for MIC50: Pseudomonas aeruginosa, fixed concentration (μg/mL) in label, read-out: MIC50
[4] = system: E. coli CDC-137 (NDM-6), PBP3 mutations; experiment: MIC, broth microdilution; assay type: cell-based; conditions: Escherichia coli, fixed BLI concentration (μg/mL) in parentheses in label
[5] = system: E. coli CDC-150 (NDM-5), PBP3 mutations; experiment: MIC, broth microdilution; assay type: cell-based; conditions: Escherichia coli, fixed BLI concentration (μg/mL) in parentheses in label
[6] = system: E. coli CDC-162 (NDM-7), PBP3 mutations; experiment: MIC, broth microdilution; assay type: cell-based; conditions: Escherichia coli
[7] = system: E. coli CDC-435 (NDM-1), PBP3 mutations; experiment: MIC, broth microdilution; assay type: cell-based; conditions: Escherichia coli, fixed BLI concentration (μg/mL) in parentheses in label
[8] = system: Staphylococcus epidermidis KUB4871/methicillin-sensitive; experiment: MIC, reference strains of aerobic bacteria; assay type: cell-based
[9] = system: Staphylococcus epidermidis KUB4862/methicillin-resistant; experiment: MIC, reference strains of aerobic bacteria; assay type: cell-based
[10] = system: Staphylococcus lugdunensis KUB4804; experiment: MIC, reference strains of aerobic bacteria; assay type: cell-based
[11] = system: Micrococcus luteus ATCC 9341; experiment: MIC, reference strains of aerobic bacteria; assay type: cell-based; conditions: ATCC9341
[12] = system: Enterococcus faecalis ATCC 29212; experiment: MIC, reference strains of aerobic bacteria; assay type: cell-based; conditions: ATCC29212
[13] = system: Enterococcus faecium NCTC 12204; experiment: MIC, reference strains of aerobic bacteria; assay type: cell-based; conditions: NCTC12204
[14] = system: Streptococcus pneumoniae ATCC 49619; experiment: MIC, reference strains of aerobic bacteria; assay type: cell-based; conditions: ATCC49619
[15] = system: Streptococcus mitis GTC495 (ATCC 49456); experiment: MIC, reference strains of aerobic bacteria; assay type: cell-based; conditions: ATCC49456
[16] = system: Streptococcus mutans GTC218; experiment: MIC, reference strains of aerobic bacteria; assay type: cell-based
[17] = system: Streptococcus porcinus ATCC 12391; experiment: MIC, reference strains of aerobic bacteria; assay type: cell-based; conditions: ATCC12391
[18] = system: Escherichia coli ATCC 25922; experiment: MIC, reference strains of aerobic bacteria; assay type: cell-based; conditions: ATCC25922
[19] = system: Klebsiella pneumoniae ATCC 700603; experiment: MIC, reference strains of aerobic bacteria; assay type: cell-based; conditions: ATCC700603
[20] = system: Klebsiella aerogenes NCTC 10006 (ATCC 13048); experiment: MIC, reference strains of aerobic bacteria; assay type: cell-based
[21] = system: Acinetobacter calcoaceticus NBRC12552 (ATCC 14987); experiment: MIC, reference strains of aerobic bacteria; assay type: cell-based
[22] = system: Stenotrophomonas maltophilia KUB3619; experiment: MIC, reference strains of aerobic bacteria; assay type: cell-based
[23] = system: Enterobacter hormaechei ATCC BAA-2082; experiment: MIC, reference strains of aerobic bacteria; assay type: cell-based; conditions: ATCCBAA2082
[24] = system: Enterobacter cloacae NBRC 13535 (ATCC 13047); experiment: MIC, reference strains of aerobic bacteria; assay type: cell-based
[25] = system: Proteus vulgaris ATCC 6380; experiment: MIC, reference strains of aerobic bacteria; assay type: cell-based; conditions: ATCC6380
[26] = system: MEM-nonsusceptible Enterobacterales with serine-carbapenemases; experiment: MIC, broth microdilution; assay type: cell-based; conditions: for CLSI MIC interpretation I (intermediate) / CLSI MIC interpretation R (resistant) / CLSI MIC interpretation S (susceptible): CLSI breakpoints, marked c: breakpoints for β-lactam alone; for MIC50 / MIC90: fixed concentration (μg/mL) in label
[27] = system: MEM-nonsusceptible Enterobacterales with metallo-carbapenemases; experiment: MIC, broth microdilution; assay type: cell-based; conditions: for CLSI MIC interpretation I (intermediate) / CLSI MIC interpretation R (resistant) / CLSI MIC interpretation S (susceptible): CLSI breakpoints, marked c: breakpoints for β-lactam alone; for MIC50 / MIC90: fixed concentration (μg/mL) in label
[28] = cited from earlier work
[29] = MEM-nonsusceptible Enterobacterales (92), CDC AR Bank
[30] = MEM-nonsusceptible Enterobacterales (127), cefiderocol 126 isolates, tigecycline: FDA breakpoints
[31] = Enterobacterales with metallo-carbapenemases (47), CDC AR Bank, CLSI breakpoints, marked c: breakpoints for β-lactam alone
[32] = Enterobacterales with metallo-carbapenemases (47), CDC AR Bank
[33] = Enterobacterales with metallo-carbapenemases (74), cefiderocol 73 isolates, CLSI breakpoints, marked c: breakpoints for β-lactam alone, tigecycline: FDA breakpoints
[34] = Enterobacterales with metallo-carbapenemases (74), cefiderocol 73 isolates
[35] = Pseudomonas aeruginosa (96), CLSI breakpoints, marked c: breakpoints for β-lactam alone
[36] = Ceftolozane/tazobactam-nonsusceptible Pseudomonas aeruginosa (45)
[37] = Imipenem/relebactam-nonsusceptible Pseudomonas aeruginosa (43)
[38] = MEM-nonsusceptible Pseudomonas aeruginosa (76)
[39] = MEM-nonsusceptible Enterobacterales with serine-carbapenemases (42), CDC AR Bank
[40] = MEM-nonsusceptible Enterobacterales with serine-carbapenemases (58), tigecycline: FDA breakpoints
[41] = MEM-nonsusceptible Enterobacterales with metallo-carbapenemases (41), CDC AR Bank
[42] = MEM-nonsusceptible Enterobacterales with metallo-carbapenemases (55), cefiderocol 54 isolates, tigecycline: FDA breakpoints

Compound: C[C@@H](O)[C@H]1C(=O)N2C(C(=O)O)=C(S[C@@H]3CN[C@H](C(=O)N(C)C)C3)[C@H](C)[C@H]12 [MEM, meropenem]
- CLSI MIC interpretation I (intermediate) [1, 29]: 16.3%
- CLSI MIC interpretation R (resistant) [1, 29]: 83.7%
- CLSI MIC interpretation S (susceptible) [1, 29]: 0%
- MIC50 [1, 29]: 8 µg/mL (≈ 20.9 µM)
- MIC90 [1, 29]: >32 µg/mL
- CLSI MIC interpretation I (intermediate) [1, 30]: 18.1%
- CLSI MIC interpretation R (resistant) [1, 30]: 81.9%
- CLSI MIC interpretation S (susceptible) [1, 30]: 0%
- MIC50 ([1]; MEM-nonsusceptible Enterobacterales (127), cefiderocol 126 isolates, read-out: MIC50): 8 µg/mL (≈ 20.9 µM)
- MIC90 ([1]; MEM-nonsusceptible Enterobacterales (127), cefiderocol 126 isolates, read-out: MIC90): > 32 µg/mL
- CLSI MIC interpretation I (intermediate) [2, 31]: 10.6%
- CLSI MIC interpretation R (resistant) [2, 31]: 76.6%
- MIC50 [2, 32]: 16 µg/mL (≈ 41.7 µM)
- MIC90 [2, 32]: > 32 µg/mL
- CLSI MIC interpretation I (intermediate) [2, 33]: 9.5%
- CLSI MIC interpretation R (resistant) [2, 33]: 64.9%
- CLSI MIC interpretation S (susceptible) [2, 33]: 25.7%
- MIC50 [2, 34]: 8 µg/mL (≈ 20.9 µM)
- MIC90 [2, 34]: > 32 µg/mL
- CLSI MIC interpretation I (intermediate) (96 P. aeruginosa; [35]): 11.5%
- CLSI MIC interpretation R (resistant) (96 P. aeruginosa; [35]): 67.7%
- CLSI MIC interpretation S (susceptible) (96 P. aeruginosa; [35]): 20.8%
- MIC50 (96 P. aeruginosa; Pseudomonas aeruginosa (96), fixed concentration (μg/mL) in label): 16 µg/mL (≈ 41.7 µM)
- MIC50 (96 P. aeruginosa; Pseudomonas aeruginosa, read-out: MIC50): 16 µg/mL (≈ 41.7 µM)
- CLSI MIC interpretation I (intermediate) [3, 36]: 6.7%
- CLSI MIC interpretation R (resistant) [3, 36]: 91.1%
- CLSI MIC interpretation S (susceptible) [3, 36]: 2.2%
- CLSI MIC interpretation I (intermediate) [3, 37]: 4.7%
- CLSI MIC interpretation R (resistant) [3, 37]: 95.3%
- CLSI MIC interpretation S (susceptible) [3, 37]: 0%
- CLSI MIC interpretation I (intermediate) [3, 38]: 14.5%
- CLSI MIC interpretation R (resistant) [3, 38]: 85.5%
- CLSI MIC interpretation S (susceptible) [3, 38]: 0%
- MIC50 [3, 36]: 64 µg/mL
- MIC50 [3, 37]: 64 µg/mL
- MIC50 [3, 38]: 16 µg/mL (≈ 41.7 µM)
- MIC [4]: 32 µg/mL (≈ 83.4 µM)
- MIC [5]: > 32 µg/mL
- MIC [6]: 32 µg/mL (≈ 83.4 µM)
- MIC [7]: 32 µg/mL (≈ 83.4 µM)
- MIC [8]: 0.06 µg/mL (≈ 0.156 µM)
- MIC [9]: 4 µg/mL (≈ 10.4 µM)
- MIC [10]: 0.12 µg/mL (≈ 0.313 µM)
- MIC [11]: 0.06 µg/mL (≈ 0.156 µM)
- MIC [12]: 1 µg/mL (≈ 2.61 µM)
- MIC [13]: 32 µg/mL (≈ 83.4 µM)
- MIC [14]: 0.06 µg/mL (≈ 0.156 µM)
- MIC [15]: ≤ 0.03 µg/mL
- MIC [16]: ≤ 0.03 µg/mL
- MIC [17]: ≤ 0.03 µg/mL
- MIC [18]: ≤ 0.03 µg/mL
- MIC [19]: ≤ 0.03 µg/mL
- MIC [20]: ≤ 0.03 µg/mL
- MIC [21]: 0.12 µg/mL (≈ 0.313 µM)
- MIC [22]: > 32 µg/mL
- MIC [23]: 4 µg/mL (≈ 10.4 µM)
- MIC [24]: 0.12 µg/mL (≈ 0.313 µM)
- MIC [25]: ≤ 0.03 µg/mL
- CLSI MIC interpretation I (intermediate) [26, 39]: 16.7%
- CLSI MIC interpretation R (resistant) [26, 39]: 83.3%
- CLSI MIC interpretation S (susceptible) [26, 39]: 0%
- MIC50 [26, 39]: 8 µg/mL (≈ 20.9 µM)
- MIC90 [26, 39]: 32 µg/mL (≈ 83.4 µM)
- CLSI MIC interpretation I (intermediate) [26, 40]: 15.5%
- CLSI MIC interpretation R (resistant) [26, 40]: 84.5%
- CLSI MIC interpretation S (susceptible) [26, 40]: 0%
- MIC50 ([26]; MEM-nonsusceptible Enterobacterales with serine-carbapenemases (58), read-out: MIC50): 8 µg/mL (≈ 20.9 µM)
- MIC90 ([26]; MEM-nonsusceptible Enterobacterales with serine-carbapenemases (58), read-out: MIC90): 32 µg/mL (≈ 83.4 µM)
- CLSI MIC interpretation I (intermediate) [27, 41]: 12.2%
- CLSI MIC interpretation R (resistant) [27, 41]: 87.8%
- CLSI MIC interpretation S (susceptible) [27, 41]: 0%
- MIC50 [27, 41]: 16 µg/mL (≈ 41.7 µM)
- MIC90 [27, 41]: >32 µg/mL
- CLSI MIC interpretation I (intermediate) [27, 42]: 12.7%
- CLSI MIC interpretation R (resistant) [27, 42]: 87.3%
- CLSI MIC interpretation S (susceptible) [27, 42]: 0%
- MIC50 ([27]; MEM-nonsusceptible Enterobacterales with metallo-carbapenemases (55), cefiderocol 54 isolates, read-out: MIC50): 16 µg/mL (≈ 41.7 µM)
- MIC90 ([27]; MEM-nonsusceptible Enterobacterales with metallo-carbapenemases (55), cefiderocol 54 isolates, read-out: MIC90): > 32 µg/mL
- human protein binding [28]: 2%
